The assay concerns the target PI3Kβ (Homo sapiens (Human), UniProt P42338). Briefly: PI3K isoform TR-FRET enzymatic assay (PI3Kβ). The assay is classed as biochemical. The conditions noted are these: 2× Km ATP, 30 minutes at 25° C. Summed up:
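IC50 came from four-parameter dose-response fits, normalized between DMSO and 1 μM wortmannin controls. The read-out was TR-FRET (615/665 nm) of PIP3 displacing fluorescent PIP3 from Europium GRP-1 after 10 mM EDTA termination. Compounds were incubated with purified heterodimeric PI3Kβ for 30 min at 25° C.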
On the technique in general: In TR-FRET formats the signal depends on donor and acceptor labels being close together.

Sequence of PI3Kβ (P42338 whole entry, canonical isoform): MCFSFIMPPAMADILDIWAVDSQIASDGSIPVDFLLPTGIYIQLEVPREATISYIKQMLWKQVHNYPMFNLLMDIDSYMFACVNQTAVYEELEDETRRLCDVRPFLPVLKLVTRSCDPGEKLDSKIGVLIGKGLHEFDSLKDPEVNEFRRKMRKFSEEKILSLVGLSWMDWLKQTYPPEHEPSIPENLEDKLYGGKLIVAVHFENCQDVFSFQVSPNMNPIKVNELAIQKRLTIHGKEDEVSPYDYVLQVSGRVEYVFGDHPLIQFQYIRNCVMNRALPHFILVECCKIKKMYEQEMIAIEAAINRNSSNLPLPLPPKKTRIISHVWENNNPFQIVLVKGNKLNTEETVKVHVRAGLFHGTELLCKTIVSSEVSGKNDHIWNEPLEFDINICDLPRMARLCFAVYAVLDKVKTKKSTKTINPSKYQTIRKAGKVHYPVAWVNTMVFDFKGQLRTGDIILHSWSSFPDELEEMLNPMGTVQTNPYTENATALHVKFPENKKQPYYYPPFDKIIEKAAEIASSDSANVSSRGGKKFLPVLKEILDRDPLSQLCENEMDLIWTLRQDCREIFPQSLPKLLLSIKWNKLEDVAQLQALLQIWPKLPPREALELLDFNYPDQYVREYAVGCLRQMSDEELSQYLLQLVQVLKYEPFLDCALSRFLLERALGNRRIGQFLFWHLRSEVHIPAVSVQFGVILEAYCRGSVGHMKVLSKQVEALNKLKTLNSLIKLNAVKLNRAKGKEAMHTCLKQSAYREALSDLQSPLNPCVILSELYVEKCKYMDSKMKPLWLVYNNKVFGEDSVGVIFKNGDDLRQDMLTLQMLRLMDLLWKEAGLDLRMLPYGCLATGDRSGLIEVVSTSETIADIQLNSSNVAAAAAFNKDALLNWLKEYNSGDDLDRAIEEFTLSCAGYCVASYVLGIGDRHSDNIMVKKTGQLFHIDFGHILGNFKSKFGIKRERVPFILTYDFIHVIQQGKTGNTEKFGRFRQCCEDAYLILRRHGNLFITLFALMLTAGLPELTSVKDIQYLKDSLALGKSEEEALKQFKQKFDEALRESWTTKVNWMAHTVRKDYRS
Sequence of PI3Kβ (P27986 whole entry partner, canonical isoform): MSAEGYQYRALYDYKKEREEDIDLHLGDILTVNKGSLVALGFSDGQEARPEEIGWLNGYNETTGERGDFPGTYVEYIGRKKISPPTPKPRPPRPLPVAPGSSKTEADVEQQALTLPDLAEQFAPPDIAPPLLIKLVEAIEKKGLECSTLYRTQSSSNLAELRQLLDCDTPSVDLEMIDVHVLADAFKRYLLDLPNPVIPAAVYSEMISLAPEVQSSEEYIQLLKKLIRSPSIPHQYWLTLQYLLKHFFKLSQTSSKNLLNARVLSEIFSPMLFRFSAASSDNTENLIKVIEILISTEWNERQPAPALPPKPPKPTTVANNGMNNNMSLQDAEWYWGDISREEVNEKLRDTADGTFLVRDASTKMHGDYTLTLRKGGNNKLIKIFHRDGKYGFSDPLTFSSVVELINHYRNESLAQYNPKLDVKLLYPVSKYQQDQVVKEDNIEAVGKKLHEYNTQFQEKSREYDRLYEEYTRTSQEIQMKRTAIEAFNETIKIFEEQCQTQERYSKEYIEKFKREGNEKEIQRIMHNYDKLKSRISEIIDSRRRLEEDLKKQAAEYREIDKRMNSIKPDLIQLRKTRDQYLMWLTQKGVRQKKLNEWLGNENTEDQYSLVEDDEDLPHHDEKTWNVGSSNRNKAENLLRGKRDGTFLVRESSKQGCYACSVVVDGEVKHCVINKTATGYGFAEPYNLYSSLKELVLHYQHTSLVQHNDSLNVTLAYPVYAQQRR

Consider `Cc1nc2c(-c3ccco3)cc(N3CCOCC3)cc2n1-c1ccnc2c(Cl)cccc12` [Example 274, 4-[3-(8-chloroquinolin-4-yl)-7-(furan-2-yl)-2-methylbenzimidazol-5-yl]morpholine], for which half-maximal inhibition (IC50) required 27 nM. This lies in the double-digit nanomolar range.

As to `CCc1nc2c(-c3ncc[nH]3)cc(N3CCOCC3)cc2n1-c1ccnc2c(F)ccc(F)c12` (atropisomer, axis not shown) [Compound 371, 4-(1-(5,8-difluoroquinolin-4-yl)-2-ethyl-4-(1H-imidazol-2-yl)-1H-benzo[d]imidazol-6-yl)morpholine], the IC50 (in general, the concentration needed to halve the response being measured) was determined as 6800 nM.

Turning to `Cc1nc2c(-c3nnc[nH]3)cc(N3CCOCC3)cc2n1-c1cc(C(F)(F)F)nc2c(Cl)cccc12` [Example 58, 4-[3-[8-chloro-2-(trifluoromethyl)quinolin-4-yl]-2-methyl-7-(4H-1,2,4-triazol-3-yl)benzimidazol-5-yl]morpholine], the IC50 worked out at 62 nM.

`Fc1cccc2c(-n3cnc4c(-c5cnc(Cl)[nH]5)cc(N5CCOCC5)cc43)ccnc12` [Example 292, 4-[7-(2-chloro-1H-imidazol-5-yl)-3-(8-fluoroquinolin-4-yl)benzimidazol-5-yl]morpholine] had an IC50 of 42 nM.

In the case of `Cc1nc2c(-c3cccc(N(C)C)c3)cc(N3CCOCC3)cc2n1-c1ccnc2c(Cl)cccc12` [Example 316, 3-(1-(8-chloroquinolin-4-yl)-2-methyl-6-morpholino-1H-benzo[d]imidazol-4-yl)-N,N-dimethylaniline], 2500 nM corresponded to half-maximal inhibition (IC50).

In turn, `Cc1nc2c(-c3nnc[nH]3)cc(N3CCOCC3)cc2n1-c1ccnc2c(F)ccc(Cl)c12` (atropisomer, axis not shown) [Compound 344, 4-[3-(5-chloro-8-fluoroquinolin-4-yl)-2-methyl-7-(4H-1,2,4-triazol-3-yl)benzimidazol-5-yl]morpholine] came in with an IC50 of 5 nM.

`Cc1nnc(-c2cc(N3CCOCC3)cc3c2nc(C)n3-c2ccnc3c(Cl)ccc(Cl)c23)[nH]1` [Example 151, 4-(1-(5,8-dichloroquinolin-4-yl)-2-methyl-4-(5-methyl-4H-1,2,4-triazol-3-yl)-1H-benzo[d]imidazol-6-yl)morpholine] displayed an IC50 of 44 nM.

Regarding `Cc1nc2c(-c3nnc(C(F)(F)F)[nH]3)cc(N3CCOCC3)cc2n1-c1ccnc2c(Cl)cccc12` [Example 136, 4-[3-(8-chloroquinolin-4-yl)-2-methyl-7-[5-(trifluoromethyl)-4H-1,2,4-triazol-3-yl]benzimidazol-5-yl]morpholine], the concentration for half-maximal inhibition (IC50) stood at 48 nM.

Take `Clc1cccc2c(-n3c(C4CCCO4)nc4c(-c5cccnc5)cc(N5CCOCC5)cc43)ccnc12` (stereo not drawn) [Example 199]: the IC50 stood at 610 nM.

Compound `CCCc1nc2c(-c3nnc[nH]3)cc(N3CCOCC3)cc2n1-c1ccnc2c(Cl)c(F)ccc12` [Example 34, 4-(1-(8-chloro-7-fluoroquinolin-4-yl)-2-propyl-4-(4H-1,2,4-triazol-3-yl)-1H-benzo[d]imidazol-6-yl)morpholine] returned a half-inhibitory concentration (IC50) of 10 nM.

Compound `Cc1nc2c(-c3nnc(N)o3)cc(N3CCOCC3)cc2n1-c1ccnc2cc(F)ccc12` [Example 163, 5-(1-(7-fluoroquinolin-4-yl)-2-methyl-6-morpholino-1H-benzo[d]imidazol-4-yl)-1,3,4-oxadiazol-2-amine] gave an IC50 of 630 nM.

`Cc1nc2c(-c3nnc[nH]3)cc(N3CCOCC3)cc2n1-c1ccnc2c(C(F)F)cccc12` [Example 82, 4-[3-[8-(difluoromethyl)quinolin-4-yl]-2-methyl-7-(4H-1,2,4-triazol-3-yl)benzimidazol-5-yl]morpholine] gave an IC50 of 9 nM.

The compound `Cc1nc2c(-c3cccc(C(N)=O)c3)cc(N3CCOCC3)cc2n1-c1ccnc2c(Cl)cccc12` [Example 321, 3-[1-(8-chloroquinolin-4-yl)-2-methyl-6-morpholin-4-ylbenzimidazol-4-yl]benzamide] yielded a 50% inhibitory concentration (IC50) of 4400 nM.

With `Fc1cccc2c(-n3c(C4CC4)nc4c(-c5nnc[nH]5)cc(N5CCOCC5)cc43)ccnc12` [Example 144, 4-[2-cyclopropyl-3-(8-fluoroquinolin-4-yl)-7-(4H-1,2,4-triazol-3-yl)benzimidazol-5-yl]morpholine], the IC50 came out at 65 nM.

The compound `COC(C)c1nc2c(-c3nnc[nH]3)cc(N3CCOCC3)cc2n1-c1ccnc2c(Cl)cccc12` (stereo not drawn) [Example 12, 4-(1-(8-chloroquinolin-4-yl)-2-(1-methoxyethyl)-4-(4H-1,2,4-triazol-3-yl)-1H-benzo[d]imidazol-6-yl)morpholine] displayed a half-maximal inhibitory concentration (IC50) of 43 nM.

`Cc1nc2c(-c3cncs3)cc(N3CCOCC3)cc2n1-c1ccnc2c(Cl)cccc12` [Example 276, 4-[3-(8-chloroquinolin-4-yl)-2-methyl-7-(1,3-thiazol-5-yl)benzimidazol-5-yl]morpholine] registered an IC50 of 420 nM.

Consider `Cc1nc2c(-c3cnc(Cl)[nH]3)cc(N3CCOCC3)cc2n1-c1ccnc2c(Cl)cccc12` [Example 278, 4-[7-(2-chloro-1H-imidazol-5-yl)-3-(8-chloroquinolin-4-yl)-2-methylbenzimidazol-5-yl]morpholine], for which the IC50 was 4 nM.

`Cc1csc(-c2cc(N3CCOCC3)cc3c2nc(C2CC2)n3-c2ccnc3c(F)ccc(F)c23)n1` [Example 237, 4-[2-cyclopropyl-3-(5,8-difluoroquinolin-4-yl)-7-(4-methyl-1,3-thiazol-2-yl)benzimidazol-5-yl]morpholine]: half-maximal inhibition (IC50) required 50 nM.

Compound `CCc1nnc(-c2cc(N3CCOCC3)cc3c2nc(C)n3-c2ccnc3c(Cl)cccc23)[nH]1` [Example 137, 4-[3-(8-chloroquinolin-4-yl)-7-(5-ethyl-4H-1,2,4-triazol-3-yl)-2-methylbenzimidazol-5-yl]morpholine] returned an IC50 of 17 nM.

Turning to `Cc1nnc(-c2cc(N3CCOCC3)cc3c2nc(C)n3-c2ccnc3c(Cl)c(F)ccc23)[nH]1` [Example 52, 4-(1-(8-chloro-7-fluoroquinolin-4-yl)-2-methyl-4-(5-methyl-4H-1,2,4-triazol-3-yl)-1H-benzo[d]imidazol-6-yl)morpholine], the IC50 turned out to be 15 nM.

On to `Cc1nc2c(-c3nnc[nH]3)cc(N3CCOCC3)cc2n1-c1c(Cl)cnc2c(Cl)cccc12` [Example 97, 4-[3-(3,8-dichloroquinolin-4-yl)-2-methyl-7-(4H-1,2,4-triazol-3-yl)benzimidazol-5-yl]morpholine], for which half-maximal inhibition (IC50) was put at 12 nM.

Turning to `CCCc1nc2c(-c3nnc[nH]3)cc(N3CCOCC3)cc2n1-c1ccnc2c(C)ccc(F)c12` [Example 37, 4-(1-(5-fluoro-8-methylquinolin-4-yl)-2-propyl-4-(4H-1,2,4-triazol-3-yl)-1H-benzo[d]imidazol-6-yl)morpholine], the IC50 was found to be 11 nM.

`Fc1ccc(F)c2c(-n3c(CC4CC4)nc4c(-c5cnc(Cl)[nH]5)cc(N5CCOCC5)cc43)ccnc12` [Example 302, 4-[7-(2-chloro-1H-imidazol-5-yl)-2-(cyclopropylmethyl)-3-(5,8-difluoroquinolin-4-yl)benzimidazol-5-yl]morpholine]: the IC50 was determined as 24 nM.

Compound `Cc1nc2c(-c3nnc[nH]3)cc(N3CCOCC3)cc2n1-c1ccnc2cccc(F)c12` [Example 81, 4-[3-(5-fluoroquinolin-4-yl)-2-methyl-7-(4H-1,2,4-triazol-3-yl)benzimidazol-5-yl]morpholine] returned a 50% inhibitory concentration (IC50) of 11 nM. This IC50 is about 2.2-fold lower than that of the compound before.

`CCc1nc2c(-c3ncc[nH]3)cc(N3CCOCC3)cc2n1-c1ccnc2c(F)ccc(F)c12` [Example 387, 4-(1-(5,8-difluoroquinolin-4-yl)-2-ethyl-4-(1H-imidazol-2-yl)-1H-benzo[d]imidazol-6-yl)morpholine]: half-maximal inhibition (IC50) required 13 nM.

As to `Cc1nc2c(-c3cnc(Cl)[nH]3)cc(N3CCOCC3)cc2n1-c1ccnc2cc(F)ccc12` [Example 293, 4-[7-(2-chloro-1H-imidazol-5-yl)-3-(7-fluoroquinolin-4-yl)-2-methylbenzimidazol-5-yl]morpholine], the IC50 worked out at 38 nM.

`Cc1ccc(F)c2c(-n3c(C)nc4c(-c5nnc[nH]5)cc(N5CCOCC5)cc43)ccnc12` [Example 124, 4-[3-(5-fluoro-8-methylquinolin-4-yl)-2-methyl-7-(4H-1,2,4-triazol-3-yl)benzimidazol-5-yl]morpholine] had an IC50 of 9 nM. Against the preceding compound, the IC50 is about 4.2-fold lower.

`Cc1nnc(-c2cc(N3CCOCC3)cc3c2nc(C)n3-c2c(F)cnc3ccccc23)[nH]1` [Example 154, 4-(1-(3-fluoroquinolin-4-yl)-2-methyl-4-(5-methyl-4H-1,2,4-triazol-3-yl)-1H-benzo[d]imidazol-6-yl)morpholine]: the concentration for half-maximal inhibition (IC50) worked out at 2200 nM.

Take `Cc1nc2c(-c3cncn3C)cc(N3CCOCC3)cc2n1-c1ccnc2c(Cl)cccc12` [Example 202, 4-[3-(8-chloroquinolin-4-yl)-2-methyl-7-(3-methylimidazol-4-yl)benzimidazol-5-yl]morpholine]: the IC50 was above 10000 nM.

`Cc1nc2c(-c3nnc[nH]3)cc(N3CCOCC3)cc2n1-c1ccnc2c(F)cccc12` [Example 140, 4-[3-(8-fluoroquinolin-4-yl)-2-methyl-7-(4H-1,2,4-triazol-3-yl)benzimidazol-5-yl]morpholine] came in with a half-inhibitory concentration (IC50) of 13 nM.

As to `Clc1cccc2c(-n3c(-c4ccn[nH]4)nc4c(-c5nnc[nH]5)cc(N5CCOCC5)cc43)ccnc12` [Example 117, 4-[3-(8-chloroquinolin-4-yl)-2-(1H-pyrazol-5-yl)-7-(4H-1,2,4-triazol-3-yl)benzimidazol-5-yl]morpholine], the IC50 was 15 nM.

In turn, `Fc1ccc(F)c2c(-n3cnc4c(-c5cnc(Cl)[nH]5)cc(N5CCOCC5)cc43)ccnc12` [Example 308, 4-[7-(2-chloro-1H-imidazol-5-yl)-3-(5,8-difluoroquinolin-4-yl)benzimidazol-5-yl]morpholine] returned an IC50 of 6 nM.

Turning to `CCc1nc2c(-c3c[nH]cn3)cc(N3CCOCC3)cc2n1-c1ccnc2c(Cl)cccc12` [Example 331, 4-[3-(8-chloroquinolin-4-yl)-2-ethyl-7-(1H-imidazol-4-yl)benzimidazol-5-yl]morpholine], the IC50 stood at 7 nM.

The values above are taken from US10214519B2, “Phosphatidylinositol 3-kinase inhibitors” (Gilead Sciences, Inc., priority 2016, dated 2019).
